Reference: publication PMC9317316, “Synthesis and Evaluation of Some New 4H-Pyran Derivatives as Antioxidant, Antibacterial and Anti-HCT-116 Cells of CRC, with Molecular Docking, Antiproliferative, Apoptotic and ADME Investigations” (Pharmaceuticals, 2022)
“And” between values parts separate entries of the source, which are not always exact repeats. Identical values can stand only once. Like-named read-outs stand apart in the source and are kept apart here.

Experiments:
S. aureus (ATCC 25923) [1] = assay: Antibacterial viability (CFU) assay, IC50; assay type: cell-based; conditions: Staphylococcus aureus, ATCC25923
Summary of the method: (§1)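 Inhibition zone on top agar after compound application, ampicillin 10 µg/well as standard. For IC50, bacteria (2 ×10^7 CFU/mL, BHI) exposed to compound 60 min at 37 °C with shaking, then diluted and plated 24 h at 37 °C; residual CFU relative to initial inoculum; triplicate means.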

[2] = tested on: S. epidermidis (ATCC 14990); assay: Antibacterial viability (CFU) assay, IC50; assay type: cell-based; conditions: Staphylococcus epidermidis, ATCC14990
Summary of the method: as §1

[3] = tested on: P. aeruginosa (ATCC 27853); assay: Antibacterial viability (CFU) assay, IC50; assay type: cell-based; conditions: Pseudomonas aeruginosa, ATCC27853
Summary of the method: as §1

B. cereus (ATCC 14579) [4] = assay: Antibacterial viability (CFU) assay, IC50; assay type: cell-based; conditions: Bacillus cereus, ATCC14579
Summary of the method: as §1

E. coli (ATCC 25966) [5] = assay: Antibacterial viability (CFU) assay, IC50; assay type: cell-based; conditions: Escherichia coli, ATCC25966; E. coil (ATCC 25966)
Summary of the method: as §1

S. enteric (ATCC 43972) [6] = assay: Antibacterial viability (CFU) assay, IC50; assay type: cell-based; conditions: read-out: IC50
Summary of the method: as §1

E. faecalis (ATCC 29122) [7] = assay: Antibacterial viability (CFU) assay, IC50; assay type: cell-based; conditions: Enterococcus faecalis, ATCC29122
Summary of the method: as §1

B. subtilis (ATCC 6633) [8] = assay: Antibacterial viability (CFU) assay, IC50; assay type: cell-based
Summary of the method: as §1

[9] = tested on: K. pneumonia (ATCC 700603); assay: Antibacterial viability (CFU) assay, IC50; assay type: cell-based; conditions: Klebsiella pneumoniae, ATCC700603
Summary of the method: as §1

HCT-116 cells = assay: Cell viability (cytotoxicity, LDH release) assay; assay type: cell-based; conditions: Homo sapiens, 24 h; for viability at 100 µg/mL: read-out: percent of viable cells
Summary of the method: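 Human colorectal HCT-116 cells exposed to compounds at 10, 25, 50 and 100 µg/mL in DMEM with 10% FBS for 24 h at 37 °C. LDH released into the supernatant measured at 600 nm; viability given as % of untreated control OD (mean ± SD, n = 3), 0.1% Triton X-100 as positive control.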

S. aureus (ATCC 25923) [10] = assay: Antibacterial agar diffusion method (inhibition zone); assay type: cell-based
Summary of the method: as §1

[11] = tested on: S. epidermidis (ATCC 14990); assay: as above; assay type: cell-based
Summary of the method: as §1

[12] = tested on: P. aeruginosa (ATCC 27853); assay: as above; assay type: cell-based
Summary of the method: as §1

B. cereus (ATCC 14579) [13] = assay: as above; assay type: cell-based
Summary of the method: as §1

E. coli (ATCC 25966) [14] = assay: as above; assay type: cell-based; conditions: E. coil (ATCC 25966)
Summary of the method: as §1

S. enteric (ATCC 43972) [15] = assay: as above; assay type: cell-based
Summary of the method: as §1

E. faecalis (ATCC 29122) [16] = assay: as above; assay type: cell-based
Summary of the method: as §1

B. subtilis (ATCC 6633) [17] = assay: as above; assay type: cell-based
Summary of the method: as §1

[18] = tested on: K. pneumonia (ATCC 700603); assay: as above; assay type: cell-based
Summary of the method: as §1

[19] = DPPH radical scavenging assay; conditions: for IC50: 0.03 to 1 mg/mL, 1 h, mean ± SD, triplicate, read-out: IC50 (mM) for DPPH Scavenging Potency
Summary of the method: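 Ethanolic DPPH mixed with samples at 0.03 to 1 mg/mL, kept 1 h at room temperature in darkness, then absorbance read at 519 nm against compound-free control. Scavenging percentage computed as (1 − Acompound/Acontrol) × 100; IC50 interpolated from scavenging-versus-concentration plot.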

[20] = Reducing power assay (FRAC, Fe3+ to Fe2+); conditions: 0-1 mg/mL, absorbance 700 nm
Summary of the method: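 Oyaizu method: compound (0–1 mg/mL) incubated with 0.2 M phosphate buffer pH 6.6 and 1% K3Fe(CN)6 at 50 °C for 20 min, then TCA, centrifugation, and 0.1% FeCl3 added to supernatant. Absorbance read at 700 nm; EC50 expressed in mM, BHT as reference.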

[21] = Bacillus subtilis, ATCC6633, B. subtilis (ATCC 6633)
[22] = read-out: Mean IC50 (µM) of cytotoxicity
[23] = read-out: Mean IC50 (µg/mL) of cytotoxicity

SMILES | IC50 (S. aureus (ATCC 25923) [1]) [µM] | IC50 [2] [µM] | IC50 [3] [µM] | IC50 (B. cereus (ATCC 14579) [4]) [µM] | IC50 (E. coli (ATCC 25966) [5]) [µM] | IC50 (S. enteric (ATCC 43972) [6]) [µM] | IC50 (E. faecalis (ATCC 29122) [7]) [µM] | IC50 (B. subtilis (ATCC 6633) [8]; [21]) [µM] | IC50 [9] [µM] | viability at 100 µg/mL (HCT-116 cells) [%] | IC50 (HCT-116 cells; [22]) [µM] | IC50 (HCT-116 cells; [23]) [µg/mL] | IZ (mm) (S. aureus (ATCC 25923) [10]) | IZ (mm) [11] | IZ (mm) [12] [mm] | IZ (mm) (B. cereus (ATCC 14579) [13]) | IZ (mm) (E. coli (ATCC 25966) [14]) | IZ (mm) (S. enteric (ATCC 43972) [15]) | IZ (mm) (E. faecalis (ATCC 29122) [16]) | IZ (mm) (B. subtilis (ATCC 6633) [17]) | other results
CC1=C(C(=O)OCc2ccccc2)C(c2ccc(Cl)cc2Cl)C(C#N)=C(N)O1 (stereo not shown) [4m, 6-Amino-5-cyano-4-(2,4-dichloro-phenyl)-2-methyl-4H-pyran-3-carboxylic acid benzyl ester] | 33.2 ± 1.01 | 35 ± 1.88 | 60.9 ± 2.17 | 35.8 ± 1.2 | 69.4 ± 2.89 | 61.8 ± 2.17 | 35.3 ± 2.22 | 23.6 to 36.8 | 66.7 ± 2.41 | 11 to 32.5 | 89.3 ± 5.05 | 37.1 ± 2.1 | 17.50 mm and 17.50 ± 0.71 mm | 18.50 ± 0.71 mm | 9.5 ± 0.7 | 18.50 ± 0.71 | 5.5 ± 0.71 | 8.5 ± 0.7 | 20.50 ± 0.71 | 21.50 ± 0.71 | IC50 (B. subtilis (ATCC 6633) [8]; B. subtilis (ATCC 6633)): 32.8 ± 2.05 µM; IZ (mm) [18]: 6.5 ± 0.7 mm; melting point: 146 to 148 °C; IC50 [19]: 0.421 ± 0.017 mM; DPPH Radical Scavenging Effenciency (%) at 1 mg/mL [19]: 69.00% and 69.0 ± 2.83%; EC50 [20]: 506 ± 34 µM
Cc1[nH]nc2c1C(c1cccc(O)c1Cl)C(C#N)=C(N)O2 (stereo not shown) [5a, 6-Amino-4-(2-chloro-3-hydroxy-phenyl)-3-methyl-2,4-dihydro-pyrano[2,3-c]pyrazole-5-carbonitrile] | 43.9 ± 1.39 | 54.8 ± 1.88 | 85.9 ± 3.3 | 62.43 ± 0.46 | 110 ± 5.95 | 105 ± 1.32 | 51.9 ± 1.39 | 62.43 ± 0.46 | 96.5 ± 4.96 | 11 to 32.5 | 189 ± 10.8 | 60 ± 3.28 | 14.00 ± 1.40 mm | 13.50 ± 0.71 mm | 5.5 ± 0.7 | 12.50 ± 0.71 | 2.8 ± 0.21 | 4.5 ± 0.7 | 10.50 ± 0.71 | 12.50 ± 0.71 | IZ (mm) [18]: 6.0 ± 1.4 mm; melting point: 240 to 242 °C; IC50 [19]: 0.826 ± 0.092 mM; DPPH Radical Scavenging Effenciency (%) at 1 mg/mL [19]: 45.50 ± 2.12%; EC50 [20]: 363 ± 47 µM
COc1cc(OC)c(C2C(C#N)=C(N)Oc3n[nH]c(C)c32)c(OC)c1 (stereo not shown) [5b, 6-Amino-3-methyl-4-(2,4,6-trimethoxy-phenyl)-2,4-dihydro-pyrano[2,3-c]pyrazole-5-carbonitrile] | 39.1 ± 1.66 | 50.1 ± 0.61 | 92.3 ± 1.46 | 42.6 ± 1.66 | 117 ± 4.09 | 106 ± 2.92 | 45.1 ± 1.87 | 41.8 ± 1.23 | 110 ± 1.75 | 11 to 32.5 | 97.9 ± 7.06 | 33.5 ± 2.42 | 5.50 ± 0.71 mm | 6.60 mm and 6.60 ± 0.57 mm | 6.5 ± 0.7 | 8.00 ± 1.41 | 3.5 ± 0.71 | 7.5 ± 0.7 | 9.75 ± 1.06 | 8.50 ± 0.71 | IZ (mm) [18]: 4.5 ± 0.7 mm; melting point: 182 to 184 °C; IC50 [19]: 1.78 ± 0.082 mM; DPPH Radical Scavenging Effenciency (%) at 1 mg/mL [19]: 37.50 ± 2.12%; EC50 [20]: 467 ± 41 µM
